This passage reports Ki results from US20130059874A1, “SUBSTITUTED N-PHENYL SPIROLACTAM BIPYRROLIDINES, PREPARATION AND THERAPEUTIC USE THEREOF” (SANOFI, priority 2010, published 2013).

Counter-ions that a name gives are not always drawn.

The experiment deals with T1, rhesus (Macacca Mulatta) H3 receptor (Macaca mulatta, UniProt Q865E1).
T1 construct: pcDNA5/FRT/TO (Invitrogen) containing the rhesus monkey (Macacca Mulatta) 445 amino acid H3 receptor
T1 sequence (Q865E1 1-445): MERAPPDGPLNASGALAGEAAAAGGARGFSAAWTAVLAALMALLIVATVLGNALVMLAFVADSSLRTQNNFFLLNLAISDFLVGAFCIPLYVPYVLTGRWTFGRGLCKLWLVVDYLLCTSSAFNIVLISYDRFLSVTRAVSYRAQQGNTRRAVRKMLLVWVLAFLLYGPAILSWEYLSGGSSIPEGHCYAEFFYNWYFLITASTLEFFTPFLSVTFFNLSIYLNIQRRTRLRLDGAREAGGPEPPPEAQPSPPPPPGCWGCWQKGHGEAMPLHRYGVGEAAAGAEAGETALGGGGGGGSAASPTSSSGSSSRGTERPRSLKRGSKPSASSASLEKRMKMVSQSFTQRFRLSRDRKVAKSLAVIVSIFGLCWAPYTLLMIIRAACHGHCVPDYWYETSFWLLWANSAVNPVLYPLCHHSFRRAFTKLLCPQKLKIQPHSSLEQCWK
The experiment is described as follows: Rhesus H3 radioligand binding assay ([3H]-Methylhistamine displacement, WGA SPA beads). On the set-up: species or system rhesus monkey (Macacca Mulatta). The note with it: [3H]-Methylhistamine 2 nM, rhesus H3 membranes, 25° C., 1 hour; Cheng-Prusoff. Here is the method:
Rhesus H3 membranes were prepared from the Flp-In T-REx 293 Cell Line (Invitrogen) stably transfected with pcDNA5/FRT/TO (Invitrogen) containing the rhesus monkey (Macacca Mulatta) 445 amino acid H3 receptor. (Genbank #AY231164). Stably transfected cultures were amplified in tissue culture flasks by standard tissue culture methods and induced to express rhesus H3 by exposure to 500 ng/ml tetracycline (Cellgro) for 24 hours. After induction, cells were dissociated from flasks utilizing Cell Stripper (Cellgro). Cells were centrifuged (1 K×g, 5 min) and pellet frozen in an ethanol-dry ice bath to disrupt cell membranes. Frozen cell pellet was re-suspended in 5 mM HEPES (pH 7.4, Invitrogen) at 10ml/1000 cm2 of harvested cells. The cell suspension was drawn through an 18 gauge needle (2-3×) followed by a 23 gauge needle (2-3×) to further disrupt cell membranes. The cell suspension was centrifuged (40K×g, 30 min). Cell membrane pellet was re-suspended in 5 mM HEPES (pH 7.4, Invitrogen) at a final protein concentration of 10 mg/ml. Rhesus H3 membranes were stored under liquid nitrogen prior to use in [3H]-Methylhistamine and GTPγS radioligand binding assays.
Rhesus H3 radioligand binding assay was performed using rhesus H3 receptor membranes (prepared as described above), [3H]-Methylhistamine (Perkin Elmer) and WGA SPA beads (wheat germ agglutinin scintillation proximity assay) beads (Amersham). The assay was performed in 96-well Opti-Plates (Packard). Each reaction contained 50 μl rhesus H3 membranes (20-30 μg total protein), 50 μl WGA SPA beads (0.1 μg) and 50 μl of 83Ci/mmol [^3H]-Methylhistamine (final concentration 2 nM) and 50 μl of tested compound. The compounds of this invention and/or vehicle were diluted with binding buffer from 10 mM DMSO stocks. Assay plates were sealed with TopSeal (Perkin Elmer) and mixed on shaker (25° C., 1 hour). Assay plates were read on TopCount scintillation counter (Packard). Results were analyzed by Hill transformation and Ki values were determined by Cheng-Prusoff equation.
The Ki is a measure of affinity in units of concentration, obtained from inhibition or displacement. `Cc1cc(N2CC[C@H](N3CCC[C@@H]3C)C2)ccc1N1CCC2(CCC(O)CC2)C1=O` (single isomer, unassigned) [Example 11]: the affinity corresponds to a Ki of 35 nM.
The same measure for `Cc1cc(N2CCC(N3CCC[C@@H]3C)CC2)ccc1N1CCC2(CCCCC2)C1=O` [Example 1, 2-{2-Methyl-4-[4-((S)-2-methyl-pyrrolidin-1-yl)-piperidin-1-yl]-phenyl}-2-aza-spiro[4.5]decan-1-one trifluoroacetate]: 0.477 nM.
`Cc1cc(N2CCC(N3CCC[C@@H]3C)CC2)ccc1N1CCCC2(CCCC2)C1=O` [Example 2, 7-{2-Methyl-4-[4-((S)-2-methyl-pyrrolidin-1-yl)-piperidin-1-yl]-phenyl}-7-aza-spiro[4.5]decan-6-one trifluoro-acetic acid salt] yielded a Ki of 12.7 nM.
The value for `Cc1cc(N2CCC(N3CCC[C@@H]3C)CC2)ccc1N1CCC2(CCC(O)CC2)C1=O` (stereo partly drawn) [Example 3, 8-Hydroxy-2-{2-methyl-4-[4-((S)-2-methyl-pyrrolidin-1-yl)-piperidin-1-yl]-phenyl}-2-aza-spiro[4.5]decan-1-one] was 30.7 nM; that for `C[C@H]1CCCN1C1CCN(c2ccc(N3CCC4(CCCCC4)C3=O)c(N)c2)CC1` [Example 4, 2-{2-Amino-4-[4-((S)-2-methyl-pyrrolidin-1-yl)-piperidin-1-yl]-phenyl}-2-aza-spiro[4.5]decan-1-one trifluoro-acetate] was 11.4 nM.
As to `Cc1cc(N2CCC(N3CCC[C@@H]3C)CC2)ccc1N1CCC2(CCC(C(=O)O)CC2)C1=O` (stereo partly drawn) [Example 5, 2-{2-Methyl-4-[4-((S)-2-methyl-pyrrolidin-1-yl)-piperidin-1-yl]-phenyl}-1-oxo-2-aza-spiro[4.5]decane-8-carboxylic acid], the Ki worked out at 58 nM.
With `C[C@H]1CCCN1[C@@H]1CCN(c2ccc(N3CCC4(CCCCC4)C3=O)c(N)c2)C1` [Example 6, 2-[2-Amino-4-((2S,3′R)-2-methyl-[1,3′]bipyrrolidinyl-1′-yl)-phenyl]-2-aza-spiro[4.5]decan-1-one trifluoro-acetic acid salt], the Ki is 35.8 nM.
In turn, `C[C@H]1CCCN1[C@H]1CCN(c2ccc(N3CCC4(CCCCC4)C3=O)cc2)C1` [Example 7, 2-[4-((2S,3′S)-2-Methyl-[1,3′]bipyrrolidinyl-1′-yl)-phenyl]-2-aza-spiro[4.5]decan-1-one] displayed a Ki of 6.44 nM.
The compound `Cc1cc(N2CC[C@H](N3CCC[C@@H]3C)C2)ccc1N1CCC2(CCCCC2)C1=O` [Example 8, 2-[2-Methyl-4-((2S,3′S)-2-methyl-[1,3]bipyrrolidinyl-1′-yl)-phenyl]-2-aza-spiro[4.5]decan-1-one] registered a Ki of 10.6 nM.
The value for `C[C@H]1CCCN1[C@H]1CCN(c2ccc(N3CCC4(CCCCC4)C3=O)c(F)c2)C1` [Example 9, 2-[2-Fluoro-4-((2S,3′S)-2-methyl-[1,3′]bipyrrolidinyl-1′-yl)-phenyl]-2-aza-spiro[4.5]decan-1-one] was 41.6 nM; that for `COc1cc(N2CC[C@H](N3CCC[C@@H]3C)C2)ccc1N1CCC2(CCCCC2)C1=O` [Example 10] was 2.65 nM.
